Source: patent publication US20260248842A1, “METHOD FOR TRANSIENT ACIDIFICATION OF WOUNDS” (SePRO Corporation, priority 2023, published 2026)

Test: Early studies: permeation and transient acidification of pig skin
Details: same amounts of ammonia equivalents and sulfuric acid in comparison solutions

For N.N.O=S(=O)(O)O [ammonium sulfate], the “permeation of pig skin and transient acidification” value was “neither of the acidified ammonium salts solutions permeated pig skin”.
